Experimental data as given in US20250297036A1, “METHOD FOR CO[…]-DERIVED PEPTIDE-NUCLEIC ACID HYBRID MOLECULES ON BASIS OF IN VITRO SELECTION” (priority 2022, published 2025).

Key:
[1] = tested on: pseudotype SARS-CoV-2; assay type: cell-based
[2] = target: SARS-CoV-2 RBD (Severe acute respiratory syndrome coronavirus 2, UniProt P0DTC2)
[3] = target: SARS-CoV-2 RBD, wild type (SARS-CoV-2), P0DTC2
[4] = target: SARS-CoV-2 spike protein on GFP-reporting pseudotype SARS-CoV-2 (SARS-CoV-2), P0DTC2; assay: cell-based or functional assay

Molecule	infection rate with pseudotype SARS-CoV-2 (percentage of infected cells) [1]	competition with P05DHu and AM122 antibodies [2]	% inhibition of RBD-hACE2 interaction [3]	infection rate with pseudotype SARS-CoV-2 (GFP-expressing hACE2-293T cells) [4]
R7-02 (GGAAGAGATGGCGACACGCAATCGTGGGTTGGGGATATAATGGTAAGCTGATCCTGATGG; 5' hexynyl group, further chemistry not given here)	1.9%	insignificant	–	–
LGKGDFR [LGKGDFR peptide]	12.6%	–	–	–
LGKGDFRK (modifications not checked) [LGKGDFR peptide (hACE2-derived hotspot peptide, not conjugated to DNA)]	–	–	11.7%	12.6%
